Measured values: ChEMBL document CHEMBL5131456, “Amyloidogenic immunoglobulin light chain kinetic stabilizers comprising a simple urea linker module reveal a novel binding sub-site” (Bioorg Med Chem Lett, 2022)

How the values were obtained:
[1] = Stabilization of fluorescein-labelled amyloidogenic full length immunoglobulin light chain dimer T46L/F49Y mutant (unknown origin) assessed as concentration of stabilizer that affords 50% maximal proteinase K protection by protease coupled fluorescence polarization assay; parameters: species or system Homo sapiens
[2] = Stabilization of fluorescein-labelled amyloidogenic full length immunoglobulin light chain dimer (unknown origin) assessed as concentration of stabilizer that affords 50% maximal proteinase K protection by protease coupled fluorescence polarization assay; parameters: species or system Homo sapiens
Homo sapiens = species on record: Homo sapiens; assay: Stabilization of unlabeled amyloidogenic full length immunoglobulin light chain dimer (unknown origin) assessed as fold proteinase K protection at 10 uM by size-exclusion chromatography

Row | Structure (SMILES) | EC50 [1] [nM] | EC50 [2] [nM] | fold change (FC) (Homo sapiens)
1 | CCN(CC)c1ccc2c(C)c(CCC(=O)NCCc3cccnc3)c(=O)oc2c1 | 2110 | 634 | 0.61
2 | CCN(CC)c1ccc2c(C)c(CCNC(=O)NCc3ccc4ccccc4c3)c(=O)oc2c1 | 27.4 | 111 | 0.66
3 | CCN(CC)c1ccc2c(C)c(CC(=O)NCCN(C)C)c(=O)oc2c1 | 2660 | 1750 | 0.39
4 | CCN(CC)c1ccc2c(C)c(CCNC(=O)NCc3cncc4ccccc34)c(=O)oc2c1 | 377 | 233 | 0.74
5 | CCN(CC)c1ccc2c(C)cc(=O)oc2c1 |  |  | 0.28
6 | CCN(CC)c1ccc2c(C)c(CCNC(=O)NCCc3cccnc3)c(=O)oc2c1 | 2050 | 1040 | 0.5

Now from value to compound:

Row | EC50 [1] [nM] | EC50 [2] [nM] | fold change (FC) (Homo sapiens) | Structure (SMILES)
7 | 810 | 462 | 0.66 | CCN(CC)c1ccc2c(C)c(CCNC(=O)NCc3cccnc3)c(=O)oc2c1
8 | 381 | 348 | 0.69 | CCN(CC)c1ccc2c(C)c(CCNC(=O)NCc3ccccc3)c(=O)oc2c1
9 | 853 | 1830 | 0.28 | CCN(CC)c1ccc2c(C)c(CC(=O)NCCc3ccccc3)c(=O)oc2c1
10 |  |  | 0.91 | CCN(CC)c1ccc2c(C)c(CCOC(=O)NCc3cccc(-c4c[nH]cn4)c3)c(=O)oc2c1
11 | 1610 | 1180 | 0.55 | CCN(CC)c1ccc2c(C)c(CCNC(=O)CCc3cccnc3)c(=O)oc2c1
12 | 513 | 490 | 0.17 | CCN(CC)c1ccc2c(C)c(CCNC(=O)CCc3ccccc3)c(=O)oc2c1
13 | > 10000 | 6800 | 0.13 | CCN(CC)c1ccc2c(C)c(CCC(=O)NCCN(C)C)c(=O)oc2c1
14 | 74.1 | 140 | 0.81 | CCN(CC)c1ccc2c(C)c(CCNC(=O)NCc3cccc(-c4c[nH]cn4)c3)c(=O)oc2c1
